From US20230157952A1, “METHOD FOR IMPROVING THE STABILITY OF A PHARMACEUTICAL COMPOSITION COMPRISING A HIGH PENETRATION DRUG, AND THE PHARMACEUTICAL COMPOSITION OBTAINED THEREFROM” (Techfields Inc., priority 2020, published 2023)

Assay: Effect of concentration on the stability of the solution (purity over time)
Conditions: for Purity (%) at Day 3 / Purity (%) at Day 7 / Purity (%) at hr 0 / Purity(%) at Day 14 / Purity(%) at Day 21 / Purity(%) at Day 28 / Purity (%) at hr 2 / Purity (%) at hr 24: 25° C.; for Stability of common ester over the concentrations tested: 0.01% to 10% (or higher) in 50% ethanol at 25° C.; for Stability when the concentration is 0.1% or lower: in water at 25° C.

## CCN(CC)CCOC(=O)CCCc1ccc(N(CCS(C)(=O)=O)CCS(C)(=O)=O)cc1.Cl
0.01 wt % in water
  Purity (%) at Day 3: 83.4%
  Purity (%) at Day 7: 73.2%
  Purity (%) at hr 0: 97.6%
  Purity(%) at Day 14: 55.2%
  Purity(%) at Day 21: 43.1%
  Purity(%) at Day 28: 32.0%
0.1 wt % in water
  Purity (%) at Day 3: 93.7%
  Purity (%) at Day 7: 88.3%
  Purity (%) at hr 0: 97.7%
  Purity(%) at Day 14: 80.6%
  Purity(%) at Day 21: 71.5%
  Purity(%) at Day 28: 60.7%
1 wt % in water
  Purity (%) at Day 3: 95.1%
  Purity (%) at Day 7: 90.8%
  Purity (%) at hr 0: 98.0%
  Purity(%) at Day 14: 85.1%
  Purity(%) at Day 21: 80.3%
  Purity(%) at Day 28: 73.8%
3 wt % in water
  Purity (%) at Day 3: 96.0%
  Purity (%) at Day 7: 94.3%
  Purity (%) at hr 0: 98.1%
  Purity(%) at Day 14: 89.7%
  Purity(%) at Day 21: 84.8%
  Purity(%) at Day 28: 80.6%
5 wt % in water
  Purity (%) at Day 3: 97.8%
  Purity (%) at Day 7: 97.2%
  Purity (%) at hr 0: 98.2%
  Purity(%) at Day 14: 95.3%
  Purity(%) at Day 21: 93.0%
  Purity(%) at Day 28: 90.3%
7 wt % in water
  Purity (%) at Day 3: 98.3%
  Purity (%) at Day 7: 98.1%
  Purity (%) at hr 0: 98.4%
  Purity(%) at Day 14: 98.0%
  Purity(%) at Day 21: 97.5%
  Purity(%) at Day 28: 97.0%
8 wt % in water
  Purity (%) at Day 3: 98.2%
  Purity (%) at Day 7: 98.2%
  Purity (%) at hr 0: 98.3%
  Purity(%) at Day 14: 98.1%
  Purity(%) at Day 21: 97.6%
  Purity(%) at Day 28: 97.0%
10 wt % in water
  Purity (%) at Day 3: 98.3%
  Purity (%) at Day 7: 98.3%
  Purity (%) at hr 0: 98.4%
  Purity(%) at Day 14: 98.0%
  Purity(%) at Day 21: 97.5%
  Purity(%) at Day 28: 97.1%
15 wt % in water
  Purity (%) at Day 3: 98.4%
  Purity (%) at Day 7: 98.2%
  Purity (%) at hr 0: 98.4%
  Purity(%) at Day 14: 98.1%
  Purity(%) at Day 21: 97.7%
  Purity(%) at Day 28: 97.2%
20 wt % in water
  Purity (%) at Day 3: 98.4%
  Purity (%) at Day 7: 98.3%
  Purity (%) at hr 0: 98.4%
  Purity(%) at Day 14: 98.2%
  Purity(%) at Day 21: 97.6%
  Purity(%) at Day 28: 97.2%
30 wt % in water
  Purity (%) at Day 3: 98.4%
  Purity (%) at Day 7: 98.2%
  Purity (%) at hr 0: 98.5%
  Purity(%) at Day 14: 98.1%
  Purity(%) at Day 21: 97.8%
  Purity(%) at Day 28: 97.3%
50 wt % in water
  Purity (%) at Day 3: 98.3%
  Purity (%) at Day 7: 98.2%
  Purity (%) at hr 0: 98.4%
  Purity(%) at Day 14: 98.2%
  Purity(%) at Day 21: 97.7%
  Purity(%) at Day 28: 97.3%

## CC(C)(C)OC(=O)c1ccccc1 [t-Butyl benzoate, reference compound]
  Stability of common ester over the concentrations tested: very unstable
0.01 wt % in 50% ethanol
  Purity (%) at Day 3: 0.0%
  Purity (%) at Day 7: 0.0%
  Purity (%) at hr 0: 97.5%
  Purity (%) at hr 2: 25.2%
  Purity (%) at hr 24: 0.0%
  Purity(%) at Day 14: 0.0%
0.1 wt % in 50% ethanol
  Purity (%) at Day 3: 0.0%
  Purity (%) at Day 7: 0.0%
  Purity (%) at hr 0: 97.4%
  Purity (%) at hr 2: 31.2%
  Purity (%) at hr 24: 0.0%
  Purity(%) at Day 14: 0.0%
1 wt % in 50% ethanol
  Purity (%) at Day 3: 0.0%
  Purity (%) at Day 7: 0.0%
  Purity (%) at hr 0: 97.5%
  Purity (%) at hr 2: 41.3%
  Purity (%) at hr 24: 1.6%
  Purity(%) at Day 14: 0.0%
3 wt % in 50% ethanol
  Purity (%) at Day 3: 1.1%
  Purity (%) at Day 7: 0.0%
  Purity (%) at hr 0: 97.4%
  Purity (%) at hr 2: 52.3%
  Purity (%) at hr 24: 15.4%
  Purity(%) at Day 14: 0.0%
5 wt % in 50% ethanol
  Purity (%) at Day 3: 3.6%
  Purity (%) at Day 7: 0.0%
  Purity (%) at hr 0: 97.4%
  Purity (%) at hr 2: 56.3%
  Purity (%) at hr 24: 20.3%
  Purity(%) at Day 14: 0.0%
10 wt % in 50% ethanol
  Purity (%) at Day 3: 5.1%
  Purity (%) at Day 7: 0.0%
  Purity (%) at hr 0: 97.8%
  Purity (%) at hr 2: 65.5%
  Purity (%) at hr 24: 25.1%
  Purity(%) at Day 14: 0.0%

## CC(C)OC(=O)c1ccccc1 [Isopropyl benzoate, reference compound]
  Stability of common ester over the concentrations tested: very stable
0.01 wt % in 50% ethanol
  Purity (%) at Day 3: 98.1%
  Purity (%) at Day 7: 98.3%
  Purity (%) at hr 0: 98.4%
  Purity (%) at hr 24: 98.3%
  Purity(%) at Day 14: 98.2%
  Purity(%) at Day 28: 98.2%
0.1 wt % in 50% ethanol
  Purity (%) at Day 3: 98.4%
  Purity (%) at Day 7: 98.4%
  Purity (%) at hr 0: 98.4%
  Purity (%) at hr 24: 98.5%
  Purity(%) at Day 14: 98.3%
  Purity(%) at Day 28: 98.3%
1 wt % in 50% ethanol
  Purity (%) at Day 3: 98.5%
  Purity (%) at Day 7: 98.4%
  Purity (%) at hr 0: 98.5%
  Purity (%) at hr 24: 98.4%
  Purity(%) at Day 14: 98.3%
  Purity(%) at Day 28: 98.3%
3 wt % in 50% ethanol
  Purity (%) at Day 3: 98.4%
  Purity (%) at Day 7: 98.4%
  Purity (%) at hr 0: 98.4%
  Purity (%) at hr 24: 98.6%
  Purity(%) at Day 14: 98.4%
  Purity(%) at Day 28: 98.4%
5 wt % in 50% ethanol
  Purity (%) at Day 3: 98.7%
  Purity (%) at Day 7: 98.4%
  Purity (%) at hr 0: 98.5%
  Purity (%) at hr 24: 98.4%
  Purity(%) at Day 14: 98.4%
  Purity(%) at Day 28: 98.4%
10 wt % in 50% ethanol
  Purity (%) at Day 3: 98.4%
  Purity (%) at Day 7: 98.4%
  Purity (%) at hr 0: 98.5%
  Purity (%) at hr 24: 98.8%
  Purity(%) at Day 14: 98.4%
  Purity(%) at Day 28: 98.4%

## CCN(CC)CCOC(=O)CCCc1ccc(N(CCCl)CCCl)cc1.Cl
0.01 wt % in water
  Purity (%) at Day 3: 83.1%
  Purity (%) at Day 7: 72.9%
  Purity (%) at hr 0: 97.8%
  Purity(%) at Day 14: 56.9%
  Purity(%) at Day 21: 43.2%
  Purity(%) at Day 28: 34.3%
0.1 wt % in water
  Purity (%) at Day 3: 94.1%
  Purity (%) at Day 7: 89.6%
  Purity (%) at hr 0: 97.9%
  Purity(%) at Day 14: 81.5%
  Purity(%) at Day 21: 73.7%
  Purity(%) at Day 28: 62.5%
1 wt % in water
  Purity (%) at Day 3: 95.1%
  Purity (%) at Day 7: 91.9%
  Purity (%) at hr 0: 98.2%
  Purity(%) at Day 14: 85.9%
  Purity(%) at Day 21: 81.9%
  Purity(%) at Day 28: 76.9%
3 wt % in water
  Purity (%) at Day 3: 96.2%
  Purity (%) at Day 7: 95.0%
  Purity (%) at hr 0: 98.4%
  Purity(%) at Day 14: 91.0%
  Purity(%) at Day 21: 87.3%
  Purity(%) at Day 28: 83.7%
5 wt % in water
  Purity (%) at Day 3: 98.2%
  Purity (%) at Day 7: 97.8%
  Purity (%) at hr 0: 98.5%
  Purity(%) at Day 14: 97.0%
  Purity(%) at Day 21: 96.3%
  Purity(%) at Day 28: 95.0%
7 wt % in water
  Purity (%) at Day 3: 98.4%
  Purity (%) at Day 7: 98.2%
  Purity (%) at hr 0: 98.5%
  Purity(%) at Day 14: 98.0%
  Purity(%) at Day 21: 97.6%
  Purity(%) at Day 28: 97.4%
8 wt % in water
  Purity (%) at Day 3: 98. %
  Purity (%) at Day 7: 98.3%
  Purity (%) at hr 0: 98.5%
  Purity(%) at Day 14: 97.9%
  Purity(%) at Day 21: 97.7%
  Purity(%) at Day 28: 97.3%
10 wt % in water
  Purity (%) at Day 3: 98.5%
  Purity (%) at Day 7: 98.3%
  Purity (%) at hr 0: 98.6%
  Purity(%) at Day 14: 98.2%
  Purity(%) at Day 21: 97.7%
  Purity(%) at Day 28: 97.4%
15 wt % in water
  Purity (%) at Day 3: 98.5%
  Purity (%) at Day 7: 98.4%
  Purity (%) at hr 0: 98.6%
  Purity(%) at Day 14: 98.1%
  Purity(%) at Day 21: 97.7%
  Purity(%) at Day 28: 97.3%
20 wt % in water
  Purity (%) at Day 3: 98.4%
  Purity (%) at Day 7: 98.3%
  Purity (%) at hr 0: 98.6%
  Purity(%) at Day 14: 98.2%
  Purity(%) at Day 21: 97.8%
  Purity(%) at Day 28: 97.3%
30 wt % in water
  Purity (%) at Day 3: 98.4%
  Purity (%) at Day 7: 98.4%
  Purity (%) at hr 0: 98.5%
  Purity(%) at Day 14: 98.3%
  Purity(%) at Day 21: 97.7%
  Purity(%) at Day 28: 97.4%
50 wt % in water
  Purity (%) at Day 3: 98.4%
  Purity (%) at Day 7: 98.3%
  Purity (%) at hr 0: 98.6%
  Purity(%) at Day 14: 98.2%
  Purity(%) at Day 21: 97.8%
  Purity(%) at Day 28: 97.4%

## CCN(CC)CCOC(=O)CCCc1ccc(N(CCS(C)(=O)=O)CCS(C)(=O)=O)cc1.Cl [2-(diethylamino)ethyl 4-[bis(2-methylsulfonylethyl)amino]benzenebutyrate.HCl]
  Stability when the concentration is 0.1% or lower: not stable

## CCN(CC)CCOC(=O)CCCc1ccc(N(CCCl)CCCl)cc1.Cl [2-(diethylamino)ethyl 4-[bis(2-chloroethyl)amino]benzenebutyrate.HCl]
  Stability when the concentration is 0.1% or lower: not stable
